The values that follow come from patent publication US10647598B2, “Antimicrobial and algicidal agent for cooling water system” (KURITA WATER INDUSTRIES LTD., priority 2013, dated 2020).

The test system of one experiment is Algae A. Kind of experiment: Test tube algicidal test on algae A sampled from cooling tower A. It counts as cell-based, diatoms, containing green algae. Details: key to the marks not given beside the values. As to conditions: visual inspection after 3 days at north-side window; CSA and algicidal agent amounts per example as in Table 1. As to the method: (§1) A test water system containing algae was prepared as described below.
(§2) Secondary treated water obtained by filtrating sewage using a filter having a pore diameter of 0.1 μm was received in a beaker having a volume of 1 L, and to this secondary treated water, 1 g of algae sampled from each of cooling towers A, B, and C in which an antimicrobial treatment was performed using a chlorosulfamic acid was added. Algae A sampled from the cooling tower A were diatoms and contained green algae. Algae B sampled from the cooling tower B were primarily formed of green algae and contained blue-green algae and diatoms. Algae C sampled from the cooling tower C were primarily formed of blue-green algae and contained green algae and diatoms.
(§3) After being raveled and sufficiently dispersed in the beaker, the algae A, B, and C were each dispensed into test tubes.
(§4) In Examples 1 to 5 and Comparative Examples 8 to 11 and 13 to 16, a chlorosulfamic acid (abbreviated as “CSA”, and the addition amount represents the residual chlorine concentration) and one of 5-chloro-2-methyl-4-isothiazolone-3-one (abbreviated as “MIT”), 2,2-dibromo-3-nitrilopropion amide (abbreviated as “DBNPA”), and 2-bromo-2-nitro-1,3-propanediol (abbreviated as “BNP) were added to each test tube so as to have predetermined concentrations shown in Table 1. In Comparative Example 6, MIT was only added. In Comparative Example 7, DBNPA was only added. In Comparative Example 12, BNP was only added. In Comparative Example 17, no chemical agents were added. Subsequently, after the test tubes were left for 3 days at a north-side window so as not to be exposed to direct sunlight, the conditions of the algae were observed by visual inspection and evaluated in accordance with the following criteria.
(§5) <Evaluation Criteria> • −: Reduction (death) of algae is apparently observed from the start of the test. • ±: Condition is the same as that at the start of the test. • +: Slight increase of algae is observed as compared to the condition at the start of the test. • ++: Apparent increase of algae is observed as compared to the condition at the start of the test. • +++: Significant increase of algae is observed as compared to the condition at the start of the test.

In another experiment the test system is Algae B. The experiment can be described thus: Test tube algicidal test on algae B sampled from cooling tower B. It counts as cell-based, green algae, containing blue-green algae and diatoms. Conditions: visual inspection after 3 days at north-side window; CSA and algicidal agent amounts per example as in Table 1. As to the method:
as §1, §2, §3, §4, §5

For a further experiment, the system named is Algae C. The experiment can be described thus: Test tube algicidal test on algae C sampled from cooling tower C. It counts as cell-based, blue-green algae, containing green algae and diatoms. As to conditions: visual inspection after 3 days at north-side window; CSA and algicidal agent amounts per example as in Table 1. Details: key to the marks not given beside the values. How it is done: as §1, §2, §3, §4, §5

A further experiment deals with algae A to C. Kind of experiment: Test tube algicidal test, overall assessment. In kind it is cell-based. Conditions: Table 1, algae A to C, 3 days. How it is done: as §1, §2, §3
In Examples 1 to 5 and Comparative Examples 8 to 11 and 13 to 16, a chlorosulfamic acid (abbreviated as “CSA”, and the addition amount represents the residual chlorine concentration) and one of 5-chloro-2-methyl-4-isothiazolone-3-one (abbreviated as “MIT”), 2,2-dibromo-3-nitrilopropion amide (abbreviated as “DBNPA”), and 2-bromo-2-nitro-1,3-propanediol (abbreviated as “BNP) were added to each test tube so as to have predetermined concentrations shown in Table 1. In Comparative Example 6, MIT was only added. In Comparative Example 7, DBNPA was only added. In Comparative Example 12, BNP was only added. In Comparative Example 17, no chemical agents were added. Subsequently, after the test tubes were left for 3 days at a north-side window so as not to be exposed to direct sunlight, the conditions of the algae were observed by visual inspection and evaluated in accordance with the following criteria. […]

As to `O=S(=O)(O)NCl` [compound 4, chlorosulfamic acid], the “Evaluation Results Algae A” value in the experiment on Algae A is “+++”. Besides, the “Evaluation Results Algae B” value in the experiment on Algae B is “+”. The “Evaluation Results Algae C” value with Algae C was “++”. Also, the “Algicidal effect, assessment in words” value in the experiment with algae A to C is on record as “a sufficient effect also cannot be obtained”.

For `Cn1sc(Cl)cc1=O` [Comparative Example 6, 5-chloro-2-methyl-4-isothiazolone-3-one], the “Evaluation Results Algae A” value in the experiment on Algae A was “++”. Also, the “Evaluation Results Algae B” value in the experiment on Algae B was “+”. Further, the “Evaluation Results Algae C” value in the experiment on Algae C was “+++”. The “Algicidal effect, assessment in words” value with algae A to C is reported as “a sufficient effect cannot be obtained”.

`O=S(=O)(O)NCl` [compound 2, chlorosulfamic acid]: the “Evaluation Results Algae A” value with Algae A was “+++”. Also, in the experiment on Algae B, the “Evaluation Results Algae B” value was “++”. Also, in the experiment with Algae C, the “Evaluation Results Algae C” value is reported as “+++”.

As to `O=S(=O)(O)NCl` [Comparative Example 1, chlorosulfamic acid], in the experiment on Algae A, the “Evaluation Results Algae A” value is “+++”. In addition, the “Evaluation Results Algae B” value in the experiment with Algae B is on record as “++”. In the experiment on Algae C, the “Evaluation Results Algae C” value is on record as “+++”.

Consider `O=S(=O)(O)NCl` [compound 5, chlorosulfamic acid], for which the “Evaluation Results Algae A” value in the experiment on Algae A is “+++”. Besides, the “Evaluation Results Algae B” value in the experiment on Algae B is “+”. Moreover, the “Evaluation Results Algae C” value in the experiment on Algae C is listed as “++”. Moreover, the “Algicidal effect, assessment in words” value in the experiment with algae A to C was “a sufficient effect also cannot be obtained”.

In the case of `N#CC(Br)(Br)C(N)=O` [Comparative Example 7, 2,2-dibromo-3-nitrilopropion amide], the “Evaluation Results Algae A” value in the experiment on Algae A is “++”. In addition, the “Evaluation Results Algae B” value in the experiment on Algae B is “+”. Besides, in the experiment with Algae C, the “Evaluation Results Algae C” value is recorded as “+++”.

Regarding `O=S(=O)(O)NCl` [compound 3, chlorosulfamic acid], the “Evaluation Results Algae A” value in the experiment with Algae A was “+++”. For the same molecule, the “Evaluation Results Algae B” value with Algae B is recorded as “++”. Also, in the experiment on Algae C, the “Evaluation Results Algae C” value was “+++”.

As for `O=[N+]([O-])C(Br)(CO)CO` [Comparative Example 12, 2-bromo-2-nitro-1,3-propanediol], in the experiment with Algae A, the “Evaluation Results Algae A” value is reported as “++”. The “Evaluation Results Algae B” value in the experiment on Algae B is on record as “++”. Also, in the experiment on Algae C, the “Evaluation Results Algae C” value is listed as “+++”.
